31 compounds from patent US5952335A, “Fused polycyclic heterocycle derivatives” (Eisai Co., Ltd., priority 1995, dated 1999) can be followed below.

Counter-ions that a name gives are not always drawn.

The test system of the experiment is P388 cells. Kind of experiment: in vitro Antitumor Test on P388 Cells (Mouse Leukemic Cells), MTT, 3 days. It counts as cell-based. To be noted: 72 h, 3 days incubation. As to the method:
P388 cells suspended in RPMI1640 medium (manufactured by Sanko Junyaku) containing 10% of fetal calf serum, (100 U/ml) of penicillin, 100 μg/ml of streptomycin, 5×10^-5 M of mercaptoethanol and 1 mM of sodium pyruvate were pipetted into a 96-well U-bottomed microplate at a ratio of 1.25×10^3 cells (0.1 ml) per well and incubated in a incubator containing 5% of carbon dioxide at 37° C. for a day. A compound of the present invention was dissolved in dimethyl sulfoxide to give a concentration of 10^-2 M and then diluted with the 10% fetal calf serum-containing RPMI1640 culture medium to give a concentration of 10^-4 or 10^-5 M. By taking this concentration as the maximal level, threefold serial dilution was effected with the use of the 10% fetal calf serum-containing RPMI1640 culture medium. Then these dilutions were added to the P388 incubation plate as described above at a ratio of 0.1 ml per well followed by incubation in an incubator containing 5% of carbon dioxide at 37° C. for 3 days. After the completion of the incubation, 0.05 ml/well of a 3.3 mg/ml solution of MTT [3-(4,5-dimethylthiazol-2-yl)-2,5-diphenyltetrazolium bromide] was added thereto and the incubation was continued for additional 2 hours. The microplate was centrifuged and the supernatant was aspirated off from each well. Then the formazan thus formed was dissolved in 0.1 ml of dimethyl sulfoxide and the absorbance thereof at 540 nm measured with a microplate reader was taken as an indication of the viable cell count. In accordance with the following formula, the inhibitory ratio was calculated and the 50% inhibitory concentration (IC50) of the test compound was determined: [formula] wherein T means the absorbance of a well containing the test compound; and C means the absorbance of a well containing no test compound.
`CN(C)CCn1c(=O)c2cccc3c4c5c(ccc4n(c1=O)c23)C(O)CCC5` (single isomer, unassigned; (+)) [Example 6, (+)-5-[2-(Dimethylamino)ethyl]-10-hydroxy-10,11,12,13-tetrahydro-4H-benzo[c]pyrimido[5,6,1-jk]carbazole-4,6(5H)-dione] registered an IC50 of 1.7 nM.
In the case of `CN(C)CCn1c(=O)c2cccc3c4c5c(ccc4n(c1=O)c23)C(O)CCC5` (stereo not shown) [Example 5, 5-[2-(Dimethylamino)ethyl]-10-hydroxy-10,11,12,13-tetrahydro-4H-benzo[c]pyrimido[5,6,1-jk]carbazole-4,6(5H)-dione] it was 4.8 nM; in that of `CN(C)CCn1c(=O)c2cccc3c4c5c(ccc4n(c1=O)c23)C(O)CO5` (stereo not shown) [Example 9, 2,3-Dihydro-8-[2-(dimethylamino)ethyl]-3-hydroxy-7H-furo[3,2-c]pyrimido[5,6,1-jk]carbazole-7,9(8H)-dione], 6.7 nM.
`CN(C)CCn1c(=O)c2cccc3c4ccc5sccc5c4n(c1=O)c23` [Example 14, 2-[2-(Dimethylamino)ethyl]-1H-pyrimido[5,6,1-jk]thieno[3,2-a]carbazole-1,3(2H)-dione hydrochloride] registered an IC50 of 74 nM.
With `CN(C)CCn1c(=O)c2cccc3c4c5c(ccc4n(c1=O)c23)C(=O)CCO5` [Example 15, 2,3-Dihydro-9-[2-(dimethylamino)ethyl]-4H,8H-pyrano[3,2-c]pyrimido[5,6,1-jk]carbazole-4,8,10(9H)-trione hydrochloride], it took 140 nM to reach half-maximal inhibition (IC50).
In the case of `CN(C)CCn1c(=O)c2cccc3c4c5occc(=O)c5ccc4n(c1=O)c23` [Example 16, 9-[2-(Dimethylamino)ethyl]-4H,8H-pyrano[3,2-c]pyrimido [5,6,1-jk]carbazole-4,8,10(9H)-trione hydrochloride], the IC50 came to 110 nM.
Compound `CN(C)CCn1c(=O)c2cccc3c4ccc5occc5c4n(c1=O)c23` [Example 17, 2-[2-(Dimethylamino)ethyl]-1H-furo[3,2-a]pyrimido[5,6,1-jk]carbazole-1,3(2H)-dione hydrochloride] came in with a concentration for half-maximal inhibition (IC50) of 34 nM.
Compound `CN(C)CCn1c(=O)c2cccc3c4ccc5ccccc5c4n(c1=O)c23` [Example 18, 2-[2-(Dimethylamino)ethyl]-1H-benzo[a]pyrimido[5,6,1-jk]carbazole-1,3(2H)-dione hydrochloride] had an IC50 of 76 nM.
In the case of `CN(C)CCCn1c(=O)c2cccc3c4c5ccccc5ccc4n(c1=O)c23` [Example 19, 5-[3-(Dimethylamino)propyl]-4H-benzo[c]pyrimido[5,6,1-jk]carbazole-4,6(5H)-dione hydrochloride] it was 220 nM; in that of `COc1ccc2c(ccc3c2c2cccc4c(=O)n(CCN(C)C)c(=O)n3c42)c1` [Example 22, 5-[2-(Dimethylamino)ethyl]-11-methoxy-4H-benzo[c]pyrimido [5,6,1-jk]carbazole-4,6(5H)-dione hydrochloride], 290 nM; in that of `COc1cccc2c1ccc1c2c2cccc3c(=O)n(CCN(C)C)c(=O)n1c32` [Example 23, 5-[2-(Dimethylamino)ethyl]-10-methoxy-4H-benzo[c]pyrimido[5,6,1-jk]carbazole-4,6(5H)-dione hydrochloride], 81 nM.
In turn, `CN(C)CCn1c(=O)c2c3ccccc3nc3c4ccccc4n(c1=O)c32` [Example 24, 2-[2-(Dimethylamino)ethyl]-1H-benzo[b]pyrimido[1,6,5-lm]-4-azacarbazole-1,3(2H)-dione dihydrochloride] registered an IC50 of 320 nM.
`CN(C)CCn1c(=O)c2cccc3c4c5c(ccc4n(c1=O)c23)C(=O)OCC5` [Example 25, 1,2-Dihydro-9-[2-(dimethylamino)ethyl]-4H,8H-pyrano[3,4-c]pyrimido[5,6,1-jk]carbazole-4,8,10(9H)-trione hydrochloride] returned an IC50 of 28 nM.
In the case of `CN(C)CCn1c(=O)c2cc([N+](=O)[O-])cc3c2n(c1=O)-c1cc2ccccc2cc1O3` [Example 27, 2-[2-(Dimethylamino)ethyl]-5-nitro-1H-benzo[b]pyrimido [5,6,1-kl]phenoxazine-1,3(2H)-dione hydrochloride] it was 490 nM; in that of `CN(C)CCn1c(=O)c2cc(Cl)cc3c4c5ccccc5ccc4n(c1=O)c23` [Example 28, 2-Chloro-5-[2-(dimethylamino)ethyl]-4H-benzo[c]pyrimido [5,6,1-jk]carbazole-4,6(5H)-dione hydrochloride], 70 nM; in that of `CN(C)CCn1c(=O)c2cccc3c4c5c(=O)[nH]ccc5ccc4n(c1=O)c23` [Example 29, 9-[2-(Dimethylamino)ethyl]-8H-pyrido[4,3-c]pyrimido[5,6,1-jk]carbazole-1,8,10(2H,9H)-trione hydrochloride], 71 nM.
The compound `CN(C)CCn1c(=O)c2cccc3c4c5ccccc5ncc4n(c1=O)c23` [Example 30, 5-[2-(Dimethylamino)ethyl]-4H-quino[4',3'-4,5]pyrrolo [3,2,1-ij]quinazoline-4,6(5H)-dione dihydrochloride] displayed an IC50 of 32 nM. This IC50 lies about 2.2-fold lower than the previous one.
Then `CN(C)CCn1c(=O)c2cc(N)cc3c2n(c1=O)-c1cc2ccccc2cc1O3` [Example 31, 5-Amino-2-[2-(dimethylamino)ethyl]-1H-benzo[b]pyrimido [5,6,1-kl]phenoxazine-1,3(2H)-dione dihydrochloride], with 110 nM.
Compound `COc1cccc2ccc3c(c4cccc5c(=O)n(CCN(C)C)c(=O)n3c54)c12` [Example 32, 5-[2-(Dimethylamino)ethyl]-13-methoxy-4H-benzo[c]pyrimido [5,6,1-jk]carbazole-4,6(5H)-dione hydrochloride] had an IC50 of 410 nM.
On to `CN(C)CCCCn1c(=O)c2cccc3c4c5ccccc5ccc4n(c1=O)c23` [Example 34, 5-[4-(Dimethylamino)butyl]-4H-benzo[c]pyrimido[5,6,1-jk]carbazole-4,6(5H)-dione hydrochloride], for which half-maximal inhibition (IC50) required 450 nM.
`CN(C)CCn1c(=O)c2cccc3c4c5cccnc5ccc4n(c1=O)c23` [Example 36, 9-[2-(Dimethylamino)ethyl]-8H-pyrido[2,3-c]pyrimido[5,6,1-jk]carbazole-8,10(9H)-dione dihydrochloride] gave an IC50 of 14 nM.
`CN(C)CCn1c(=O)c2cc([N+](=O)[O-])cc3c4c5ccccc5ccc4n(c1=O)c23` [Example 37, 5-[2-(Dimethylamino)ethyl]-2-nitro-4H-benzo[c]pyrimido [5,6,1-jk]carbazole-4,6(5H)-dione hydrochloride] gave a half-maximal inhibitory concentration (IC50) of 380 nM.
Regarding `Cc1cc2c(=O)n(CCN(C)C)c(=O)n3c4ccc5ccccc5c4c(c1)c23` [Example 38, 5-[2-(Dimethylamino)ethyl]-2-methyl-4H-benzo[c]pyrimido [5,6,1-jk]carbazole-4,6(5H)-dione hydrochloride], the IC50 stood at 110 nM.
With `CN(C)CCn1c(=O)c2cccc3c4c5c(ccc4n(c1=O)c23)C(=O)NCC5` [Example 39, 1,2-Dihydro-9-[2-(dimethylamino)ethyl]-8H-pyrido[3,4-c]pyrimido[5,6,1-jk]carbazole-4,8,10(3H,9H)-trione hydrochloride], the IC50 turned out to be 7.7 nM.
`CN(C)CCn1c(=O)c2cccc3c4c5c(ccc4n(c1=O)c23)OCO5` [Example 40, 8-[2-(Dimethylamino)ethyl]-7H-1,3-dioxolo[4,5-c]pyrimido [5,6,1-jk]carbazole-7,9(8H)-dione hydrochloride] yielded an IC50 of 220 nM.
Then `CN(C)CCn1c(=O)c2cccc3c4c5ccc(Br)cc5ccc4n(c1=O)c23` [Example 41, 11-Bromo-5-[2-(dimethylamino)ethyl]-4H-benzo[c]pyrimido [5,6,1-jk]carbazole-4,6(5H)-dione hydrochloride], with 320 nM; and `CN(C)CCn1c(=O)c2cccc3c4cc5ccccc5cc4n(c1=O)c23` [Example 42, 2-[2-(Dimethylamino)ethyl]-1H-benzo[b]pyrimido[5,6,1-jk]carbazole-1,3(2H)-dione hydrochloride], with 49 nM; and `CN(C)CCn1c(=O)c2cccc3c4c5c(ccc4n(c1=O)c23)CCCC5` [Example 43, 5-[2-(Dimethylamino)ethyl]-10,11,12,13-tetrahydro-4H-benzo[b]pyrimido[5,6,1-jk]carbazole-4,6(5H)-dione hydrochloride], with 66 nM.
In the case of `CN(C)CCn1c(=O)c2cccc3c4c5c(ccc4n(c1=O)c23)C(=O)C(C)(C)CC5` [Example 44, 12,13-Dihydro-11,11-dimethyl-5-[2-(dimethylamino)ethyl]-4H-benzo[c]pyrimido[5,6,1-jk]carbazole-4,6,10(5H,11H)-trione hydrochloride] it was 360 nM.
`COc1cc2c(=O)n(CCN(C)C)c(=O)n3c4ccc5ccccc5c4c(c1)c23` [Example 45, 5-[2-(Dimethylamino)ethyl]-2-methoxy-4H-benzo[c]pyrimido [5,6,1-jk]carbazole-4,6(5H)-dione hydrochloride] registered an IC50 of 160 nM.
Compound `CN(C)CCn1c(=O)c2cccc3c4c5ccc(O)cc5ccc4n(c1=O)c23` [Example 46, 5-[2-(Dimethylamino)ethyl]-11-hydroxy-4H-benzo[c]pyrimido [5,6,1-jk]carbazole-4,6(5H)-dione hydrochloride] came in with an IC50 of 77 nM.
